SMILES strings stand for the structures.

IC50 data for one molecule are collected here from article PMC2259182, “Identification of biomarkers for the antiangiogenic and antitumour activity of the superoxide dismutase 1 (SOD1) inhibitor tetrathiomolybdate (ATN-224)” (British Journal of Cancer, 2008).

In the experiment the target is T1, Purified bovine SOD1 (Bos taurus, UniProt P00442).
T1 construct: commercial purified enzyme (Sigma)
Put plainly: WST-1 reduction by xanthine oxidase-generated superoxide. In kind it is biochemical. For orientation: Tetrazolium assays rely on reduction of a dye to a coloured formazan, in cell work by metabolically active cells.

T1 sequence (P00442 2-152): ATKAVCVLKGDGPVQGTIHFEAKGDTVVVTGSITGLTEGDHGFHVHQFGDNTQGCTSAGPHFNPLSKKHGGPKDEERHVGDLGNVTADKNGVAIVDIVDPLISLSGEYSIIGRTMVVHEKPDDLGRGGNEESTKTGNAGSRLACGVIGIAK

As to `[S]=[Mo](=[S])([SH])[SH]` [ATN-224], the IC50 (commonly the point on the concentration scale where inhibition reaches its midpoint) worked out at 2030 nM.
